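Tested at 5 concentrations; 48 h exposure; 96-well plates; endpoints linearly interpolated, else capped at highest concentration. TGI is the concentration that stops growth completely.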
Columns and labels:
Experiment in all cases: NCI tumour cell line growth inhibition, 48 h
[1] = test system: HCC-2998 colon
[2] = test system: NCI-H23 lung
[3] = test system: EKVX NSCLC
[4] = test system: T-47D breast
[5] = test system: M14 melanoma
[6] = test system: HCT-116 colon
[7] = test system: HS 578T breast
[8] = test system: NCI-H460 lung
[9] = test system: OVCAR-5 ovarian
[10] = test system: SF-539 CNS
[11] = test system: UACC-257 melanoma
[12] = test system: MDA-MB-231 breast
[13] = test system: OVCAR-8 ovarian
[14] = test system: SNB-75 CNS

Compound	TGI [1]	TGI [2]	TGI [3]	TGI [4]	TGI [5]	TGI [6]	TGI [7]	TGI [8]	TGI [9]	TGI [10]	TGI [11]	TGI [12]	TGI [13]	TGI [14]
CN=C(n1ccnc1)n1ccnc1	> 100 µM	> 100 µM	> 100 µM	> 100 µM	> 100 µM	> 100 µM	> 100 µM	> 100 µM	> 100 µM	> 100 µM	> 100 µM	> 100 µM	> 100 µM	> 100 µM
COc1cc(OC)cc(Oc2nc3ccccc3nc2C(F)(F)F)c1	> 100 µM	> 100 µM	> 100 µM	> 100 µM	> 100 µM	> 100 µM	> 100 µM	> 100 µM	> 100 µM	> 100 µM	> 100 µM	94.9 µM	> 100 µM	> 100 µM
CCOC(=O)CCC(NC(=O)Cc1ccc(Nc2nc3cc(F)c(F)cc3nc2C(=O)OCC)cc1)C(=O)OCC (centres undefined)	> 100 µM	> 100 µM	> 100 µM	78.8 µM	> 100 µM	> 100 µM	> 100 µM	> 100 µM	> 100 µM	> 100 µM	> 100 µM	> 100 µM	> 100 µM	77.2 µM
CC1(C)[C@@H](Cn2ccc(=O)[nH]c2=O)CC[C@@]1(C)CO	> 100 µM	–	> 100 µM	> 100 µM	> 100 µM	> 100 µM	> 100 µM	–	> 100 µM	–	> 100 µM	> 100 µM	–	> 100 µM
CC(=O)OC(OC(C)=O)c1ccc2ccc3cccc4ccc1c2c34	24.5 µM	45.1 µM	80.6 µM	68 µM	61 µM	52.4 µM	36.8 µM	39.6 µM	41.8 µM	> 100 µM	34.5 µM	84.1 µM	> 100 µM	41.6 µM
O=C1C=CC(=O)c2c1ccc1c3ccccc3n(CCCCCn3c4ccccc4c4ccc5c(c43)C(=O)C=CC5=O)c21	> 80.8 µM	32.8 µM	> 94.3 µM	24.5 µM	39.3 µM	25.7 µM	> 78.7 µM	> 100 µM	> 78.1 µM	33.9 µM	39.5 µM	46.8 µM	46.9 µM	32.9 µM
CC(=O)Nc1sc(Br)cc1S(=O)(=O)c1ccc(Cl)cc1	44.2 µM	> 100 µM	> 100 µM	68.5 µM	38 µM	> 100 µM	56.3 µM	> 100 µM	> 100 µM	40.6 µM	> 100 µM	> 100 µM	68.7 µM	88.6 µM
O=S(=O)(O)CCCc1cccc2ccccc12	> 100 µM	> 100 µM	> 100 µM	> 100 µM	> 100 µM	> 100 µM	> 100 µM	> 100 µM	> 100 µM	> 100 µM	> 100 µM	> 100 µM	> 100 µM	> 100 µM
O=[N+]([O-])c1ccc(CN(CCCl)OCCCl)cc1	> 100 µM	> 100 µM	> 100 µM	> 100 µM	> 100 µM	> 100 µM	> 100 µM	> 100 µM	> 100 µM	> 100 µM	> 100 µM	> 100 µM	> 100 µM	> 100 µM
O=C(N/N=C(\c1ccccc1)c1ccccn1)NC1CCCCC1	> 100 µM	> 100 µM	> 100 µM	> 100 µM	> 100 µM	> 100 µM	> 100 µM	> 100 µM	> 100 µM	–	> 100 µM	> 100 µM	–	> 100 µM
N#Cc1n[nH]n(-c2ccc(Br)cc2)c1=O	> 100 µM	> 100 µM	> 100 µM	> 100 µM	> 100 µM	> 100 µM	> 100 µM	–	> 100 µM	> 100 µM	> 100 µM	> 100 µM	> 100 µM	> 100 µM
CCO/C(O)=C(/C(=N)N1CCOCC1)C(=O)Nc1ccc(F)cc1	> 100 µM	> 100 µM	> 100 µM	> 100 µM	> 100 µM	> 100 µM	> 100 µM	> 100 µM	> 100 µM	–	> 100 µM	> 100 µM	> 100 µM	> 100 µM
Cc1c(O)ccc2c(O)c(NC(=O)c3ccc4c(c3)CCC(C)(C)O4)c(=O)oc12	> 100 µM	> 100 µM	> 100 µM	> 100 µM	–	> 100 µM	> 100 µM	> 100 µM	> 100 µM	> 100 µM	> 100 µM	> 100 µM	> 100 µM	> 100 µM
C=CCn1c(N)c(C#N)c(C#N)c1-c1ccccc1	> 100 µM	> 100 µM	> 100 µM	> 100 µM	> 100 µM	–	> 100 µM	–	> 100 µM	> 100 µM	> 100 µM	> 100 µM	> 100 µM	> 100 µM
O=C1c2ccccc2C(=O)c2c(NCC(O)CO)ccc(NCC(O)CO)c21 (centres undefined)	> 100 µM	> 100 µM	> 100 µM	> 100 µM	–	> 100 µM	> 100 µM	> 100 µM	> 100 µM	> 100 µM	> 100 µM	> 100 µM	> 100 µM	> 100 µM
O=c1[nH]cnc2c1cnn2Cc1cn(CCCCO)nn1	> 100 µM	> 100 µM	> 100 µM	> 100 µM	> 100 µM	> 100 µM	> 100 µM	> 100 µM	> 100 µM	> 100 µM	> 100 µM	> 100 µM	> 100 µM	–
Cc1c(C)c2c(c(N)c1C#N)C(=O)N(NC(=O)c1ccccc1)C2=O	> 100 µM	–	> 100 µM	> 100 µM	> 100 µM	> 100 µM	> 100 µM	> 100 µM	> 100 µM	> 100 µM	> 100 µM	> 100 µM	> 100 µM	> 100 µM

— PubChem BioAssay (NCI)
